Source: article PMC6982535 (Science (New York, N.Y.), 2019)

Columns and labels:
THIK-2 = biological target: T1, THIK-2 (Homo sapiens, UniProt Q9HB15); assay: Extended screening of K2P channels with BL-1249: THIK-2; type: cell-based; details: result in words
T1 sequence (Q9HB15 1-430): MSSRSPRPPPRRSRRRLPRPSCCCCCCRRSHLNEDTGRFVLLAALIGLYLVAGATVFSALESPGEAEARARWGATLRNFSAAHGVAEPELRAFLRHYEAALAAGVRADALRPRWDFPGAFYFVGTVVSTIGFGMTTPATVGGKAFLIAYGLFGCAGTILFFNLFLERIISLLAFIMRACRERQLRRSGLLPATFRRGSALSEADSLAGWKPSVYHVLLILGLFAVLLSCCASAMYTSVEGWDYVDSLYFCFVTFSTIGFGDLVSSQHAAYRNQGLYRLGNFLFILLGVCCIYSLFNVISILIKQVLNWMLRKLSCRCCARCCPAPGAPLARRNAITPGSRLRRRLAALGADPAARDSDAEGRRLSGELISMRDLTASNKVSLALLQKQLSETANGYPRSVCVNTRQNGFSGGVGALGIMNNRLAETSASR

Kv1.1 = Kv1.1 (Homo sapiens, UniProt Q09470); assay: BL-1249 on helix bundle-crossing gated channel Kv1.1; type: cell-based; details: result in words
Kv1.1, sequence (Q09470 whole entry): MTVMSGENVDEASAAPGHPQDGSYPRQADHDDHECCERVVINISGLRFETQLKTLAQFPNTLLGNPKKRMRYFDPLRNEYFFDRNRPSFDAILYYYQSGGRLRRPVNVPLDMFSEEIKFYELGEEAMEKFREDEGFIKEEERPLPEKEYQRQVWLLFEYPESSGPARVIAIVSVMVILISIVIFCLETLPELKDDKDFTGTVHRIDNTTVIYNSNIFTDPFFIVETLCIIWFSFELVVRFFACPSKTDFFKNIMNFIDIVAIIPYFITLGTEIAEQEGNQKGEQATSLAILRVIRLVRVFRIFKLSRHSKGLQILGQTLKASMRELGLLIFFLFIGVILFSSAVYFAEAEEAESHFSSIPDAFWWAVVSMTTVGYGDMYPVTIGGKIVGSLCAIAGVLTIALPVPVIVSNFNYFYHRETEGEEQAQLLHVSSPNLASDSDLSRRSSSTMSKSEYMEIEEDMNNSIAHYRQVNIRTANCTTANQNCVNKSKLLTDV

c1ccc(-c2nn[nH]n2)c(Nc2cccc3c2CCCC3)c1 [BL-1249]
activation of THIK-2 (THIK-2): potent activation | activation of Kv1.1 (Kv1.1): not activated
